Data published in patent US8497279B2, “Treatment for discoid lupus” (Rigel Pharmaceuticals, Inc., priority 2011, dated 2013).
Counter-ions that a name gives are not always drawn.

Tests used:
JAK1/JAK2 pathway = test: A549 epithelial line stimulated with IFNγ, ICAM-1 surface expression (FACS); assay type: cell-based, human; details: A549 cells, IFNγ 75 ng/mL, 24 hours, ICAM-1 expression; read-out: Example 5 IC50
Excerpt: The JAK activity of the compounds described herein may also be characterized by assaying the effect of compounds I and II described herein on A549 lung epithelial cells and U937 cells. A549 lung epithelial cells and U937 cells up-regulate ICAM-1 (CD54) surface expression in response to a variety of different stimuli. Therefore, using ICAM-1 expression as readout, test compound effects on different signaling pathways can be assessed in the same cell type. Stimulation with IL-1β through the IL-1β receptor activates the TRAF6/NFκB pathway resulting in up-regulation of ICAM-1. IFNγ induces ICAM-1 up-regulation through activation of the JAK1/JAK2 pathway. The up-regulation of ICAM-1 can be quantified by flow cytometry across a compound dose curve and EC50 values are calculated. […]
A549 lung epithelial cells up-regulate ICAM-1 (CD54) surface expression in response to a variety of different stimuli. Therefore, using ICAM-1 expression as readout, compound effects on different signaling pathways can be assessed in the same cell type. […] In this example, the up-regulation of ICAM-1 by IFNγ was assessed. […]
On day three, the cell media was removed and the cells were washed with 200 μL PBS (phosphate buffered saline). […] Cells were washed with ice cold FACS buffer (PBS+2% FBS) and surface ICAM-1 expression was analyzed by flow cytometry. […]

JAK/Stat pathway = test: U937 IFNγ ICAM1 FACS assay; assay type: cell-based, human; details: U937 cells, IFNγ 10 ng/mL, 18-24 hours, ICAM-1 expression; read-out: Example 6 IC50
Experimental: U937 human monocytic cells up-regulate ICAM-1 (CD54) surface expression in response to a variety of different stimuli. Therefore, using ICAM-1 expression as readout, compound effects on different signaling pathways can be assessed in the same cell type. IFNγ up-regulates ICAM-1 through activation of the JAK/Stat pathway. In this example, the up-regulation of ICAM-1 by IFNγ was assessed.
U937 cells were grown in 10% RPMI. The cells were then plated at a concentration of 100,000 cells per 160 μL in 96 well flat bottom plates. […] Then 4 μL of test compound was transferred to 76 μL of 10% RPMI resulting in a 10× solution (100 μM test compound, 5% DMSO). For control wells, 4 μL of DMSO was diluted into 76 μL 10% RPMI.
The assay was performed in duplicate with 8 points (8 3-fold dilution concentrations from […]) and with 4 wells of DMSO only (control wells) under stimulated conditions and 4 wells of DMSO only under unstimulated conditions.
The diluted compound plate was mixed 2× using a multimek (Beckman Coulter of Brea, Calif.) and then 20 μL of the diluted compounds was transferred to the 96 well plate containing 160 μL of cells, which were then mixed again twice at low speeds. The cells and compounds were then pre-incubated for 30 minutes at 37° C. with 5% CO2.
The 10× stimulation mix was made by preparing a 100 ng/mL solution of human IFNγ in 10% RPMI. […] The cells were kept under conditions for stimulation for 18-24 hours at 37° C. with 5% CO2.
The cells were transferred to a 96 well round bottom plate for staining and then kept on ice for the duration of the staining procedure. Cells were spun down at 1000 rpm for 5 minutes at 4° C., following which the supernatant was removed. Following removal of the supernatant, 1 μL APC conjugated mouse anti-human ICAM-1 antibody was added per 100 μL FACS buffer. The cells were then incubated on ice in the dark for 30 minutes. Following incubation, 150 μL of FACS buffer was added and the cells were centrifuged at 1000 rpm for 5 minutes at 4° C., following which the supernatant was removed. […]
Both % live cells and ICAM-1 expression was analyzed. […]

Question: With `C#CCOc1ccc(Nc2nc(Nc3ccc(C)c(S(=O)(=O)NC(=O)CC)c3)ncc2F)cc1` [VI, 5-Fluoro-N2-[4-methyl-3-(N-propionylaminosulfonyl)phenyl]-N4-[4-(2-propynyloxy)phenyl]-2,4-pyrimidinediamine Arginine Salt] as the molecule, how does the IC50 (JAK1/JAK2 pathway) read?
Answer: Its IC50 is 4970 nM.

Question: And the IC50 (JAK/Stat pathway)?
Answer: The IC50 was 424 nM.
